Like-named read-outs stand apart in the source and are kept apart here. Marks after values point to notes of the source that are not given here. Starred links: 1 amine or outer side, 2 acyl side, 3 side chain; linkers in the order of their positions; H or OH if unused. Non-standard residues stand in square brackets, D forms with d. Groups on a side chain read outwards from the residue. No end group written: not given here. *: point of attachment. C20 diacid = O=C(O)CCCCCCCCCCCCCCCCCCC(=O)*; Phe(4-CN) = N#Cc1ccc(C[C@H](N)C(=O)O)cc1; αMePhe(2-F) = C[C@](N)(Cc1ccccc1F)C(=O)O; γGlu = O=C(O)[C@H](CCC(=O)[*:2])N[*:1]; εLys = N[C@@H](CCCCN[*:1])C(=O)[*:2]; αMeL = CC(C)C[C@](C)(N)C(=O)O; AEEA = NCCOCCOCC(=O)O; Aib = CC(C)(N)C(=O)O
Experiments:
hGIPR [1] = target: T1, hGIPR (Homo sapiens, UniProt P48546); assay: Functional cAMP activity in the presence of 1% HSA; format: cell-based
T1 sequence (P48546 22-466): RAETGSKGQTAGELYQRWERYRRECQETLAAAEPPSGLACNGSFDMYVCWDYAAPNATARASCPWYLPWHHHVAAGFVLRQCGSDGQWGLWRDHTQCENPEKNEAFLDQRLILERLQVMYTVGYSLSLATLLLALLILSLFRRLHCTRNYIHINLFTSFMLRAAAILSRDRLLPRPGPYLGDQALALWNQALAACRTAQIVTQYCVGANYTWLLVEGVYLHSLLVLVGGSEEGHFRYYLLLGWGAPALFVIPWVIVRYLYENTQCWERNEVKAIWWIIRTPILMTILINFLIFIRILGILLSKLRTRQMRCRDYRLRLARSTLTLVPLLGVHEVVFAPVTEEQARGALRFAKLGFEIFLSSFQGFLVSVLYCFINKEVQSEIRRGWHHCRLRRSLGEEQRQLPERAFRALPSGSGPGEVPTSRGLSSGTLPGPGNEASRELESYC

hGLP-1R [2] = target: T2, hGLP-1R (Homo sapiens, UniProt P43220); assay: Functional cAMP activity in the presence of 1% HSA; format: cell-based
Target sequence in this assay (P43220 24-463): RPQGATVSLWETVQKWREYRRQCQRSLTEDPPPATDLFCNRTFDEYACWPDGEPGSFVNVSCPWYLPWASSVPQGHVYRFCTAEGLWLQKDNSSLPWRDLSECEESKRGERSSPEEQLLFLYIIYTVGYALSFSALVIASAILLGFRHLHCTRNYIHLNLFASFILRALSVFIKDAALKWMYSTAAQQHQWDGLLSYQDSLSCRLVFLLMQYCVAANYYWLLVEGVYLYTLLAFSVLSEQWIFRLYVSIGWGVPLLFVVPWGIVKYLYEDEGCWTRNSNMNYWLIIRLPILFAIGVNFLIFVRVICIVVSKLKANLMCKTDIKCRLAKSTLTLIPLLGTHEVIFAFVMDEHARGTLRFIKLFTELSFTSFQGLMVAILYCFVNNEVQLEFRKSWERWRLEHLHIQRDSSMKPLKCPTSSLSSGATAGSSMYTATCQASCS

human GcgR = human GcgR (Homo sapiens, UniProt P47871); assay: Functional cAMP activity in the presence of 1% HSA; format: cell-based
hGIPR [3] = target: T1, hGIPR; assay: Functional cAMP activation in the presence of 0.1% casein (no HSA); format: cell-based;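 as to Relative cAMP EC50, hGIPR: intracellular cAMP rise after 30 min at 37 °C read by HTRF against a standard curve, scaled between buffer alone (0%) and top control ligand concentration (100%), four-parameter fit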;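 as to Relative cAMP EC50, hGLP-1R: intracellular cAMP rise after 30 min at 37 °C read by HTRF, normalized between buffer only (0%) and maximal control ligand (100%), four-parameter variable-slope fit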;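 as to Relative cAMP EC50, hGcgR: intracellular cAMP rise after 30 min at 37 °C, read by HTRF against a cAMP standard curve, scaled from buffer only (0%) to maximal control ligand response (100%)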
hGLP-1R [4] = target: T2, hGLP-1R; assay: as above; format: cell-based
Target sequence in this assay (P43220 24-463): as above

hGcgR = hGcgR (Homo sapiens, UniProt P47871); assay: as above; format: cell-based;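 also: intracellular cAMP rise after 30 min at 37 °C, read by HTRF against a cAMP standard curve, scaled from buffer only (0%) to maximal control ligand response (100%)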
human GLP1-R = human GLP1-R (Homo sapiens, UniProt P43220); assay: GLP1-R internalization assay in HEK293 cells; format: cell-based; conditions: for Internalization % TOP: normalized to maximum concentration of GLP-1 (100%)
[5] = In vivo ileum (distal loop) absorption assay; conditions: Sprague Dawley, rat, 300 μM peptide with 100 mM C10, rats
Description: Ileum absorption of the exemplary polypeptides in the presence of C10 in rats is evaluated using a previously reported intestinal closed loop model (Lawrence, S. A.; Blankenship, R.; Brown, […].; Ellis, B.; Thangaraju, A.; Datta-Mannan, A., Influence of FcRn binding properties on the gastrointestinal absorption and exposure profile of Fc molecules. […] Overnight fasted Sprague Dawley rats with body weights between 250-280 grams are anesthetized by inhaling isoflurane and placed on a warm surgical table maintained by circulating water at 37 °C. The surgical area is shaved, and the skin is disinfected with betadine scrub followed by 70% isopropyl alcohol. An approximately 2 cm ventral midline incision is made to expose intestine, and 10 cm of an ileum segment is tied off. The peptides are formulated with 100 mM C10 in Tris buffer (pH 8.0, 50 mM) at a final concentration of 300 μM. The formulations are administered directly into the ileum loop. […] Blood samples are collected into tubes containing […] (5%) and processed to plasma for subsequent analyses. Peptide concentrations in the plasma are determined by LC/MS.

[6] = Pharmacokinetics in male Sprague Dawley rats, single subcutaneous administration; conditions: rat, in vivo, sc, 10 nmol/kg
[7] = Body weight in diet-induced obese C57BL/6 mice; format: in vivo; conditions: percent of starting weight, DIO mice, mean ± SEM n=5
How it was run: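 Male C57BL/6 DIO mice (41-50 g, 5 per group, randomized by weight) on calorie-rich diet received subcutaneous doses 30-90 min before dark onset, QD or Q3D for 9-16 days. Body weight measured daily, expressed as percent of starting weight, mean±SEM.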

hGLP-1R [8] = target: T2, hGLP-1R; assay: GLP-1R CHO cell β-arrestin recruitment assay; format: cell-based; set-up: host or cells: CHO-K1 (PathHunter, assay-ready frozen cells); conditions: for EC50: CHO-K1 PathHunter, β-arrestin-2, 0.1% casein, read-out: hGLP1R β-arrestin Rel EC50; for % Stimulation Max: normalized to GLP-1(7-36) as maximum control;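 as to all read-outs here: luminescence read after 90 min peptide exposure at 37 °C and a further 60 min with detection reagent at room temperature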
Target sequence in this assay (P43220 24-463): as above
Target sequence in this assay (P32121 whole entry partner): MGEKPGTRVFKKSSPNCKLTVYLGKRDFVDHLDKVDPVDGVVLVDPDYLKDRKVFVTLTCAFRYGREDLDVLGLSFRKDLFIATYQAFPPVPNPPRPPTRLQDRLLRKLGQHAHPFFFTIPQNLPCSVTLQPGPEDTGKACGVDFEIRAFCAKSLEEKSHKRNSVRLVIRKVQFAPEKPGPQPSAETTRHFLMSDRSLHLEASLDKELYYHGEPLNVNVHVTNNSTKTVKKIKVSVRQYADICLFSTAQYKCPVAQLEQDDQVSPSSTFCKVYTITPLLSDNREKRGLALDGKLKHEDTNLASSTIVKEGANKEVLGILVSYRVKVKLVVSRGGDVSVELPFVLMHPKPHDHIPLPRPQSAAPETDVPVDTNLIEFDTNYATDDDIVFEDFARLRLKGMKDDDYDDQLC

[9] = read-out: cAMP Rel EC50, hGLP-1R
[10] = in the presence of 0.1% casein (no HSA), geometric mean, read-out: Relative cAMP EC50, hGIPR
[11] = in the presence of 0.1% casein (no HSA), geometric mean, read-out: Relative cAMP EC50, hGLP-1R
[12] = in the presence of 0.1% casein (no HSA), geometric mean, read-out: Relative cAMP EC50, hGcgR
[13] = HEK293 cells expressing SNAP-GLP-1R, read-out: GLP1R Internalization EC50

Sequence of human GLP1-R (P43220 24-463): as the sequence (P43220 24-463) above
Sequence of hGcgR (P47871 26-477): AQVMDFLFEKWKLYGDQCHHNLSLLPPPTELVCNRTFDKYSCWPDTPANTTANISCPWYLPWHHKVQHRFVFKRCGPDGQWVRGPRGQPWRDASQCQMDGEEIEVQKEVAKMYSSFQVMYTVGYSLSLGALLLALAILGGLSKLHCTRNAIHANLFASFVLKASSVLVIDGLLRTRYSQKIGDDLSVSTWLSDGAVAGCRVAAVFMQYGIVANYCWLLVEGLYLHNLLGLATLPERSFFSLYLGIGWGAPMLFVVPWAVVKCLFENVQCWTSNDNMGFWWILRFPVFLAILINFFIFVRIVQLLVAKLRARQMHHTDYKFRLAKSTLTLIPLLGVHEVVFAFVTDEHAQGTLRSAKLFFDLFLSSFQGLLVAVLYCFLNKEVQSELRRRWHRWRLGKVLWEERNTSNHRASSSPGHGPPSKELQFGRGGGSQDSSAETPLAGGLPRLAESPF
Sequence of human GcgR (P47871 26-477): as above

Compound | Internalization % TOP (human GLP1-R) [%] | EC50 (hGIPR [1]; read-out: cAMP Rel EC50, hGIPR) [nM] | EC50 (hGLP-1R [2]; [9]) [nM] | EC50 (human GcgR; read-out: cAMP Rel EC50, hGcgR) [nM] | EC50 (hGIPR [3]; [10]) [nM] | EC50 (hGLP-1R [4]; [11]) [nM] | EC50 (hGcgR; [12]) [nM] | CL/F [6] [mL/min/kg] | half-life [6] [h] | EC50 (human GLP1-R; [13]) [nM] | EC50 (hGLP-1R [8]) [nM] | % Stimulation Max (hGLP-1R [8]) [%] | Body weight (%) ([7]; 10 nmol/kg SC Q3D, 14 days) | other results
CC[C@H](C)[C@H](NC(=O)[C@H](Cc1ccccc1)NC(=O)[C@H](C)NC(=O)C(C)(C)NC(=O)[C@H](CCC(N)=O)NC(=O)[C@H](C)NC(=O)[C@H](CCCCNC(=O)COCCOCCNC(=O)CC[C@H](NC(=O)CCCCCCCCCCCCCCCCC(=O)O)C(=O)O)NC(=O)[C@H](CCCCN)NC(=O)[C@H](CC(=O)O)NC(=O)[C@H](CC(C)C)NC(=O)[C@](C)(CC(C)C)NC(=O)[C@H](CCC(N)=O)NC(=O)[C@H](CO)NC(=O)[C@H](Cc1ccccc1)NC(=O)[C@H](CC(=O)O)NC(=O)[C@H](CO)NC(=O)[C@@H](NC(=O)[C@H](Cc1ccccc1)NC(=O)[C@@H](NC(=O)CNC(=O)[C@H](CCC(N)=O)NC(=O)C(C)(C)NC(=O)[C@@H](N)Cc1ccc(O)cc1)[C@@H](C)O)[C@@H](C)O)C(=O)N[C@@H](CCC(=O)O)C(=O)N[C@@H](Cc1ccc(O)cc1)C(=O)N[C@@H](CC(C)C)C(=O)N[C@@H](CC(C)C)C(=O)N[C@@H](CCC(=O)O)C(=O)NC(C)(C)C(=O)NCC(=O)N1CCC[C@H]1C(=O)N[C@@H](CO)C(=O)N[C@@H](CO)C(=O)NCC(=O)N[C@@H](C)C(=O)N1CCC[C@H]1C(=O)N1CCC[C@H]1C(=O)N1CCC[C@H]1C(=O)N[C@@H](CO)C(=O)NCC(=O)N[C@@H](CO)C(N)=O [Example 151] | 55 | – | – | – | – | – | – | – | – | – | – | – | – | EC50 (hGIPR [1]): 14.9 nM; EC50 (hGLP-1R [2]): 384 nM; EC50 (human GcgR): 1420 nM; EC50 (hGIPR [3]): 0.0784 nM; EC50 (hGLP-1R [4]): 1.6 nM; EC50 (hGcgR): 3.5 nM; EC50 (human GLP1-R): 77.8 nM; AUC [5]: 0.0886 µM·h; level at time molar at 10 min ([5]; 10 min, read-out: 10 min IL plasma concentration): 69 nM; level at time molar at 20 min ([5]; 20 min, read-out: 20 min IL plasma concentration): 95 nM; level at time molar at 40 min ([5]; 40 min, read-out: 40 min IL plasma concentration): 115 nM; level at time molar at 1 h ([5]; 60 min, read-out: 60 min IL plasma concentration): 124 nM
H-Y[Aib]QGTFTSDYSI[αMeL]LDKK([AEEA-γGlu-C20 diacid])AQRAFIEYLLEGGPSSGEPPPSEG-NH2 [Example 289] | 86.5 | 105 | 139 | 1750 | 0.382 | 0.449 | 5.02 | 0.0645 | 22.4 | 10.9 | 5.96 | 47.5 | 82.32 ± 1.25 % | Body weight (%) ([7]; 10 nmol/kg SC QD, 16 days): 60.94 ± 1.87 %
H-Y[Aib]QGT[αMePhe(2-F)]TSD[Phe(4-CN)]SILLDKQAQK([AEEA-AEEA-γGlu-C20 diacid])AFIEYLLEGGPSSGEPPPSEG-NH2 [Example 321] | 92.8 | 13 | 110 | 836 | 0.0912 | 0.798 | 4.49 | 0.137 | 26.2 | 27.1 | 8.78 | 90.1 | 87.14 +/− 0.59*** % | –

Now from value to compound, other results behind:

Internalization % TOP (human GLP1-R) [%] | EC50 (hGIPR [1]; read-out: cAMP Rel EC50, hGIPR) [nM] | EC50 (hGLP-1R [2]; [9]) [nM] | EC50 (human GcgR; read-out: cAMP Rel EC50, hGcgR) [nM] | EC50 (hGIPR [3]; [10]) [nM] | EC50 (hGLP-1R [4]; [11]) [nM] | EC50 (hGcgR; [12]) [nM] | CL/F [6] [mL/min/kg] | half-life [6] [h] | EC50 (human GLP1-R; [13]) [nM] | EC50 (hGLP-1R [8]) [nM] | % Stimulation Max (hGLP-1R [8]) [%] | Compound | Body weight (%) ([7]; 10 nmol/kg SC Q3D, 14 days) | other results
91.1 | 42.6 | 204 | 842 | 0.207 | 0.926 | 3.47 | 0.322 | 12.6 | 34 | 6.11 | 74.5 | H-Y[Aib]QGTFTSDYSI[αMeL]LDKQAAK([εLys-εLys-γGlu-C20 diacid])QFVEWLLA[Aib]GPSSGEPPPSEG-NH2 [Example 329] | – | –
66.8 | 75.5 | 631 | 1630 | 0.207 | 1.65 | 4.29 | 0.143 | 12.1 | 49.5 | > 10000 | 12.3 | Y[Aib]QGTFTSDFSK[αMeL]LDKK([AEEA-γGlu-C20 diacid])AQ[Aib]AFIEYLLAGGPSSGEPPPSGE-NH2 [Example 2] | 77.90 +/− 1.90**** % | –

Source: patent publication US20240270821A1, “GIP/GLP1/GCG TRI-RECEPTOR AGONISTS AND USES THEREOF” (priority 2023, published 2024)
